What was measured:
Experiment in all cases: relative viability (nuclei count vs DMSO), 5 days (fraction); higher = more cells survive
[1] = system: NCI-H2126; settings: first compound 500 µM
Summary of the method: (§1)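 Nuclei were stained with Hoechst during a one-step fixation (final 0.05% Triton X-100, 1% formaldehyde, 1 ug/ml Hoechst) carried out 5 days after dosing, then counted on 4× images. The cells, lung cancer lines in 1536-well plates, had been dosed by pin tool the day after seeding with one drug alone or a fixed anchor-drug dose plus five library-drug doses (not always all listed) in √10 steps. Relative viability is the nuclei count in treated wells divided by that in vehicle wells, and each value is the median of duplicate plates.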

[2] = system: NCI-H1993
Summary of the method: as §1

[3] = system: NCI-H2347
Summary of the method: as §1

[4] = system: NCI-H647
Summary of the method: as §1

[5] = system: NCI-H1666
Summary of the method: as §1

[6] = system: SK-LU-1
Summary of the method: as §1

[7] = system: NCI-H441
Summary of the method: as §1

[8] = system: LCLC-97TM1
Summary of the method: as §1

[9] = system: SW 1573
Summary of the method: as §1

[10] = system: EMC-BAC-2
Summary of the method: as §1

[11] = system: NCI-H1755
Summary of the method: as §1

O=C(O)CCCCC(CCSCc1ccccc1)SCc1ccccc1 (stereo not given) [CPI-613] + CC(C)C[C@H](NC(=O)[C@H](Cc1ccccc1)NC(=O)c1cnccn1)B(O)O [Bortezomib] (partner 0.002 µM)
relative viability [1]: 0.761 | relative viability ([2]; first compound 5 µM): 0.953 | relative viability ([2]; first compound 15.81 µM): 0.918 | relative viability ([2]; first compound 50 µM): 0.943 | relative viability ([2]; first compound 158.11 µM): 0.717 | relative viability ([2]; first compound 500 µM): 0.363 | relative viability ([3]; first compound 5 µM): 0.606 | relative viability ([3]; first compound 15.81 µM): 0.833 | relative viability ([3]; first compound 50 µM): 1.2 | relative viability ([3]; first compound 500 µM): 1 | relative viability ([4]; first compound 5 µM): 0.861 | relative viability ([4]; first compound 15.81 µM): 0.8 | relative viability ([4]; first compound 50 µM): 0.962 | relative viability ([4]; first compound 158.11 µM): 0.0678 | relative viability ([4]; first compound 500 µM): 0.0092 | relative viability ([5]; first compound 5 µM): 0.883 | relative viability ([5]; first compound 15.81 µM): 0.603 | relative viability ([5]; first compound 50 µM): 0.757 | relative viability ([5]; first compound 158.11 µM): 0.175 | relative viability ([5]; first compound 500 µM): 0.0891 | relative viability ([6]; first compound 5 µM): 1.31 | relative viability ([6]; first compound 15.81 µM): 0.781 | relative viability ([6]; first compound 50 µM): 1.32 | relative viability ([6]; first compound 158.11 µM): 1.02 | relative viability ([6]; first compound 500 µM): 0.935 | relative viability ([7]; first compound 5 µM): 0.447 | relative viability ([7]; first compound 15.81 µM): 0.44 | relative viability ([7]; first compound 50 µM): 0.537 | relative viability ([7]; first compound 158.11 µM): 0.129 | relative viability ([7]; first compound 500 µM): 0.005 | relative viability ([8]; first compound 5 µM): 0.728 | relative viability ([8]; first compound 15.81 µM): 0.276 | relative viability ([8]; first compound 50 µM): 0.583 | relative viability ([8]; first compound 158.11 µM): 0.532 | relative viability ([8]; first compound 500 µM): 0.819 | relative viability ([9]; first compound 5 µM): 0.951 | relative viability ([9]; first compound 15.81 µM): 0.985 | relative viability ([9]; first compound 50 µM): 0.979 | relative viability ([9]; first compound 158.11 µM): 0.884 | relative viability ([9]; first compound 500 µM): 0.802 | relative viability ([10]; first compound 5 µM): 1.06 | relative viability ([10]; first compound 15.81 µM): 0.993 | relative viability ([10]; first compound 50 µM): 1.07 | relative viability ([10]; first compound 158.11 µM): 0.936 | relative viability ([10]; first compound 500 µM): 0.4 | relative viability ([11]; first compound 5 µM): 0.959 | relative viability ([11]; first compound 15.81 µM): 0.945 | relative viability ([11]; first compound 50 µM): 0.875 | relative viability ([11]; first compound 158.11 µM): 0.707 | relative viability ([11]; first compound 500 µM): 0.114

Source: the supplement of paper PMC10307832
